Laboratory results published in patent publication US9636418B2 (priority 2013, dated 2017).
Read-outs that look alike come from different tables or passages of the source.

How the values were obtained:
Assay in all cases: cell-based
[1] = target: hNav1.7 (Homo sapiens, UniProt Q15858); assay type: cell-based; conditions: PatchXpress, read-out: PX hNav1.7 Tonic IC50
[2] = target: hNav1.4 (Homo sapiens, UniProt P35499); conditions: for IC50: PatchXpress, read-out: PX hNav1.4 Tonic IC50
[3] = target: hNav1.5 (Homo sapiens, UniProt Q14524); conditions: for IC50: PatchXpress, read-out: PX hNav1.5 Tonic IC50
[4] = * = at high concentrations compound would wash off slowly or not at all

Chain of hNav1.7 (Q15858 whole entry): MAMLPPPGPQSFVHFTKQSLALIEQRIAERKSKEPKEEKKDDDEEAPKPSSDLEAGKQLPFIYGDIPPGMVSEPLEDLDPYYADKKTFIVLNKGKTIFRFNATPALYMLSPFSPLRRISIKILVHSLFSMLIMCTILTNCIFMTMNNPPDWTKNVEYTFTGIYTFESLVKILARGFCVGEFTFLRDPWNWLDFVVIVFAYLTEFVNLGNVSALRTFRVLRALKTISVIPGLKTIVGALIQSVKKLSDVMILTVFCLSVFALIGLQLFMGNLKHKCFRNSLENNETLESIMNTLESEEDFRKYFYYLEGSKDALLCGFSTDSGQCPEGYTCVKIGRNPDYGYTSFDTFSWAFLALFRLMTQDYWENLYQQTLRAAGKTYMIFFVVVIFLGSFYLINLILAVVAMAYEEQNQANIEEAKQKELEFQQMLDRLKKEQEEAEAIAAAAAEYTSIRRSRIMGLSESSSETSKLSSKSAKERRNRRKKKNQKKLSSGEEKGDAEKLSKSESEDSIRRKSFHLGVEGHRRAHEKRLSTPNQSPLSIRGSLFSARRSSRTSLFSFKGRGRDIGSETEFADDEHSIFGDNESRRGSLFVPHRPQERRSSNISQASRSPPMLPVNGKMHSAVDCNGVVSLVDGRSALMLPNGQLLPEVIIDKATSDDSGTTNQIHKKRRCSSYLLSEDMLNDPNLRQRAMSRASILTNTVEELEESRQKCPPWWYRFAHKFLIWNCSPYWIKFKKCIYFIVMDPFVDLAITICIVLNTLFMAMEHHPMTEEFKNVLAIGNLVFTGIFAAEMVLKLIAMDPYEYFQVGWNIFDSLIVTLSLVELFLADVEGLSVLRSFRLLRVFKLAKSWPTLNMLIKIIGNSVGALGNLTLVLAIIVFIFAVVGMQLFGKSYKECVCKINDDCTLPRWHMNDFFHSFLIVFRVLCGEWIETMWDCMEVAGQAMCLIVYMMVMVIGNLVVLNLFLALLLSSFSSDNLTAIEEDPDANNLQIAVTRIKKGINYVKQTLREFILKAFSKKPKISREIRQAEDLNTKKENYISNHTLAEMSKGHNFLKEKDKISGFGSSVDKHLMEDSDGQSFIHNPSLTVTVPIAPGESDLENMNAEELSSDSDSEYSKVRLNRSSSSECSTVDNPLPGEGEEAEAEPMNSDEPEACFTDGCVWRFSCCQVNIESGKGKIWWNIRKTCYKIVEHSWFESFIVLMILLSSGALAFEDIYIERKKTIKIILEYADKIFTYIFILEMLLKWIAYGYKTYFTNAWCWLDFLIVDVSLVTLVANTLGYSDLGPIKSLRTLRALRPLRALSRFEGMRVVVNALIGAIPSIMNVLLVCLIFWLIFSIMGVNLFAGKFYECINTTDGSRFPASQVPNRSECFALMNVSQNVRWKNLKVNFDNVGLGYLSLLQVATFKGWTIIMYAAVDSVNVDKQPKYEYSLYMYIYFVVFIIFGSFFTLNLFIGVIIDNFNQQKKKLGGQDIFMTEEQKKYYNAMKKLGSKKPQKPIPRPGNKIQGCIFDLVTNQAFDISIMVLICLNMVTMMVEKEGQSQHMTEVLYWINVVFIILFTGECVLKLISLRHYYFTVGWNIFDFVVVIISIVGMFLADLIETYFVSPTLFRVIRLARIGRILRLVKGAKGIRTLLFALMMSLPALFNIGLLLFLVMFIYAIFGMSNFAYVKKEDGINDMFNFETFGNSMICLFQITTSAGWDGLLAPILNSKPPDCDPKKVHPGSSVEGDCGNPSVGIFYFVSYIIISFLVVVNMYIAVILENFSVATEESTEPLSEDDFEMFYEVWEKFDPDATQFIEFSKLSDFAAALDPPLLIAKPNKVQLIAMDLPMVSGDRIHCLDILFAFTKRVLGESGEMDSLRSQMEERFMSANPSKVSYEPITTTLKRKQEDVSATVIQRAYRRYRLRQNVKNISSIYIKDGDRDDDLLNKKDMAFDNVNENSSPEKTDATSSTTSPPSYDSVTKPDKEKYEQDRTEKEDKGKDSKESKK
Chain of hNav1.5 (Q14524 whole entry): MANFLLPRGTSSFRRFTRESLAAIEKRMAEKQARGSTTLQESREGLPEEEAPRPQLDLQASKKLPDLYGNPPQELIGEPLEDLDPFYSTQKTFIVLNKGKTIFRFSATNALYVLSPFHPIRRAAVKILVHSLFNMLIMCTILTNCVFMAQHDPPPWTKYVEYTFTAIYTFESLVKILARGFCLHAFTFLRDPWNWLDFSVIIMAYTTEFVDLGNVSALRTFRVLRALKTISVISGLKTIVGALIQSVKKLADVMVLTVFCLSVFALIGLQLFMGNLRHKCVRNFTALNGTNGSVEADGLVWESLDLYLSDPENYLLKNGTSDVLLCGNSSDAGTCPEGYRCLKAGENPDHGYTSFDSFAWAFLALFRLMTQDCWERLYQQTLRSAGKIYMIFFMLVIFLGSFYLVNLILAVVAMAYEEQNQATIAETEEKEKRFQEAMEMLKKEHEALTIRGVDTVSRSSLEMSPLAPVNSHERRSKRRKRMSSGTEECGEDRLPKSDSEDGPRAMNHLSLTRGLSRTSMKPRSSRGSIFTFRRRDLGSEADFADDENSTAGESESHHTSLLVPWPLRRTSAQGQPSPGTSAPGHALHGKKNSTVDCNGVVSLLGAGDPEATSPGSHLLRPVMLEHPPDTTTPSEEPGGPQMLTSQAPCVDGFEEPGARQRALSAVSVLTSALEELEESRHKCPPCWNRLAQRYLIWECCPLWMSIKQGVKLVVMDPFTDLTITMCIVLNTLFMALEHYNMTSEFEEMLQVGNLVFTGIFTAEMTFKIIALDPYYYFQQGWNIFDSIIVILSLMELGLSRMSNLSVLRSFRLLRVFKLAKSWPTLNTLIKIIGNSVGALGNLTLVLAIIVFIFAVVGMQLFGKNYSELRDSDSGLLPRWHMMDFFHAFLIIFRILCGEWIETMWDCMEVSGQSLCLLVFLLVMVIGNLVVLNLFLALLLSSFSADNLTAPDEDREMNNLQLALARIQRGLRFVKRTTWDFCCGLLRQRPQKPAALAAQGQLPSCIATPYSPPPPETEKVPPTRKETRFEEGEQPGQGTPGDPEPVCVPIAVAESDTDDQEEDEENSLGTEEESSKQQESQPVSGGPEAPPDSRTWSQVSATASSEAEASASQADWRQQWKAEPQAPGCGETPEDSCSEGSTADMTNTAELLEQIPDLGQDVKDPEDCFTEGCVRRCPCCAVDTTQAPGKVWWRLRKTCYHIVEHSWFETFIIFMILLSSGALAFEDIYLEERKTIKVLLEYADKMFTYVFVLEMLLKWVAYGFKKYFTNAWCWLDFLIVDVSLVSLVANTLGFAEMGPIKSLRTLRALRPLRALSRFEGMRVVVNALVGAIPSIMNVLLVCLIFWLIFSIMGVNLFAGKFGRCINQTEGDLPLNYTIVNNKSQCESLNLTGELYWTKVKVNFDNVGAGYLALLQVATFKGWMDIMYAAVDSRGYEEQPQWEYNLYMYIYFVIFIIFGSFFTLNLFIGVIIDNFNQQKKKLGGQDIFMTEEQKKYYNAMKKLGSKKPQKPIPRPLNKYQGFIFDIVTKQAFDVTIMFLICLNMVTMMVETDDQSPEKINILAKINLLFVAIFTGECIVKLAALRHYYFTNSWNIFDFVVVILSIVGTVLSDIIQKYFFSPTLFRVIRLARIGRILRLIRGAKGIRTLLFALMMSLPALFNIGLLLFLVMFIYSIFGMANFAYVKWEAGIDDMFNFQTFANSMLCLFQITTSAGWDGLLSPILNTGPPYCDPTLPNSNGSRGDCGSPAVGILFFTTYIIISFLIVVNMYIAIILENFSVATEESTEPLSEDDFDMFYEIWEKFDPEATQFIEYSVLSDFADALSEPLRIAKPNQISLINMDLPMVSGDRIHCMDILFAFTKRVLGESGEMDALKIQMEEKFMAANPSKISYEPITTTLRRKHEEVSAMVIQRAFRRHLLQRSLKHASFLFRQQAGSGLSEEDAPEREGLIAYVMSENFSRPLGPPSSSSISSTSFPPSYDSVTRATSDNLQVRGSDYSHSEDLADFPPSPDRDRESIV

SMILES: CC[C@H](C)[C@H](NC(=O)[C@H](CCC(=O)O)NC(=O)[C@H](CCCCN)NC(=O)[C@H](CCCNC(=N)N)NC(=O)[C@@H]1CSSC[C@@H]2NC(=O)[C@H](C)NC(=O)[C@H](CCCNC(=N)N)NC(=O)[C@H](CCCCN)NC(=O)[C@H](CO)NC(=O)[C@H](CC(=O)O)NC(=O)[C@@H]3CSSC[C@H](NC(=O)[C@H](CCCNC(=N)N)NC(=O)[C@H](CC(C)C)NC(=O)CNC(=O)[C@H](CCC(=O)O)NC(=O)[C@H](CSSC[C@H](NC(=O)[C@@H](N)Cc4ccc(O)cc4)C(=O)N[C@@H](CCC(N)=O)C(=O)N[C@@H](CCCCN)C(=O)N[C@@H](Cc4c[nH]c5ccccc45)C(=O)N[C@@H](CCSC)C(=O)N[C@@H](Cc4c[nH]c5ccccc45)C(=O)N[C@@H]([C@@H](C)O)C(=O)N3)NC2=O)C(=O)N[C@@H](CCCCN)C(=O)N[C@@H](CC(C)C)C(=O)N[C@@H](Cc2c[nH]c3ccccc23)C(=O)N1)C(N)=O [compound 69]
- IC50 [1, 4]: 1 nM
- IC50 [2, 4]: 300 nM
- Nav1.4/Nav1.7 ([2]; ratio of PX IC50 values): 300
- IC50 [3, 4]: 8800 nM
- Nav1.5/Nav1.7 ([3]; ratio of PX IC50 values): 8800

SMILES: C#CC[C@@H]1NC(=O)[C@@H]2CSSC[C@H](NC(=O)[C@@H](N)Cc3ccc(O)cc3)C(=O)N[C@@H](CCC(N)=O)C(=O)N[C@@H](CCCCN)C(=O)N[C@@H](Cc3c[nH]c4ccccc34)C(=O)N[C@@H](CCCC)C(=O)N[C@@H](Cc3c[nH]c4ccccc34)C(=O)N[C@@H]([C@@H](C)O)C(=O)N[C@H]3CSSC[C@H](NC(=O)[C@H](CCC(=O)O)NC(=O)[C@H](CC(C)C)NC(=O)CNC1=O)C(=O)N[C@@H](CCCCN)C(=O)N[C@@H](CC(C)C)C(=O)N[C@@H](Cc1c[nH]c4ccccc14)C(=O)N[C@H](C(=O)N[C@@H](CCCNC(=N)N)C(=O)N[C@@H](CCCCN)C(=O)N[C@H](C(=O)N[C@H](C(N)=O)[C@@H](C)CC)[C@@H](C)CC)CSSC[C@H](NC(=O)[C@H](C)NC(=O)[C@H](CCCNC(=N)N)NC(=O)[C@H](CCCCN)NC(=O)[C@H](CO)NC(=O)[C@H](CC(=O)O)NC3=O)C(=O)N2 [compound 346]
- IC50 ([1]; tonic block): 9.95 nM
- IC50 ([2]; tonic block): 291 nM
- Nav1.4/Nav1.7 ([2]; ratio of PX tonic IC50 values): 29
- IC50 ([3]; tonic block): 1020 nM

SMILES: CCCC[C@@H]1NC(=O)[C@H](Cc2c[nH]c3ccccc23)NC(=O)[C@H](CCCCN)NC(=O)[C@H](CCC(N)=O)NC(=O)[C@@H](NC(=O)[C@@H](N)CCN=[N+]=[N-])CSSC[C@@H]2NC(=O)[C@@H]3CSSC[C@@H](C(=O)N[C@@H](CCCNC(=N)N)C(=O)N[C@@H](CCCCN)C(=O)N[C@H](C(=O)N[C@@H](Cc4c[nH]c5ccccc45)C(N)=O)[C@@H](C)CC)NC(=O)[C@H](Cc4c[nH]c5ccccc45)NC(=O)[C@H](CC(C)C)NC(=O)[C@H](CCCCN)NC(=O)[C@H](CSSC[C@H](NC(=O)[C@H]([C@@H](C)O)NC(=O)[C@H](Cc4c[nH]c5ccccc45)NC1=O)C(=O)N[C@@H](CC(=O)O)C(=O)N[C@@H](CO)C(=O)N[C@@H](CCCCN)C(=O)N[C@@H](CCCNC(=N)N)C(=O)N[C@@H](C)C(=O)N3)NC(=O)[C@H](CCC(=O)O)NC(=O)[C@H](CC(C)C)NC(=O)CNC(=O)[C@H](CCC(=O)O)NC2=O [compound 309]
- IC50 ([1]; tonic block): 3.21 nM
- IC50 ([2]; tonic block): 767 nM
- IC50 ([3]; tonic block): 2030 nM

SMILES: CCCC[C@@H]1NC(=O)[C@H](Cc2c[nH]c3ccccc23)NC(=O)[C@H](CCCCN)NC(=O)[C@H](CCC(N)=O)NC(=O)[C@@H](NC(=O)[C@H](Cc2ccc(O)cc2)NC(=O)CCN)CSSC[C@@H]2NC(=O)[C@@H]3CSSC[C@@H](C(=O)N[C@@H](CCCNC(=N)N)C(=O)N[C@@H](CCCCN)C(=O)N[C@H](C(=O)N[C@H](C(N)=O)[C@@H](C)CC)[C@@H](C)CC)NC(=O)[C@H](Cc4c[nH]c5ccccc45)NC(=O)[C@H](CC(C)C)NC(=O)[C@H](CCCCN)NC(=O)[C@H](CSSC[C@H](NC(=O)[C@H]([C@@H](C)O)NC(=O)[C@H](Cc4c[nH]c5ccccc45)NC1=O)C(=O)N[C@@H](CC(=O)O)C(=O)N[C@@H](CO)C(=O)N[C@@H](CCCCN)C(=O)N[C@@H](CCCNC(=N)N)C(=O)N[C@@H](C)C(=O)N3)NC(=O)[C@H](CCCNC(=N)N)NC(=O)[C@H](CC(C)C)NC(=O)CNC(=O)[C@H](CCC(=O)O)NC2=O [compound 376]
- IC50 [1, 4]: 0.951 nM
- IC50 [2, 4]: 3.2 nM
- Nav1.4/Nav1.7 ([2]; ratio of PX IC50 values): 3
- IC50 [3, 4]: 700 nM

SMILES: CCCC[C@@H]1NC(=O)[C@H](Cc2c[nH]c3ccccc23)NC(=O)[C@H](CCCCN)NC(=O)[C@H](CCC(N)=O)NC(=O)[C@@H](NC(=O)[C@H](Cc2ccc(O)cc2)NC(=O)[C@@H](C)N)CSSC[C@@H]2NC(=O)[C@@H]3CSSC[C@@H](C(=O)N[C@@H](CCCNC(=N)N)C(=O)N[C@@H](CCCCN)C(=O)N[C@H](C(=O)N[C@H](C(N)=O)[C@@H](C)CC)[C@@H](C)CC)NC(=O)[C@H](Cc4c[nH]c5ccccc45)NC(=O)[C@H](CC(C)C)NC(=O)[C@H](CCCCN)NC(=O)[C@H](CSSC[C@H](NC(=O)[C@H]([C@@H](C)O)NC(=O)[C@H](Cc4c[nH]c5ccccc45)NC1=O)C(=O)N[C@@H](CC(=O)O)C(=O)N[C@@H](CO)C(=O)N[C@@H](CCCCN)C(=O)N[C@@H](CCCNC(=N)N)C(=O)N[C@@H](C)C(=O)N3)NC(=O)[C@H](CCCNC(=N)N)NC(=O)[C@H](CC(C)C)NC(=O)CNC(=O)[C@H](CCC(=O)O)NC2=O [compound 372]
- IC50 [1, 4]: 0.957 nM
- IC50 [2, 4]: 5.1 nM
- Nav1.4/Nav1.7 ([2]; ratio of PX IC50 values): 5
- IC50 [3, 4]: 730 nM

SMILES: C#CC[C@H](N)C(=O)N[C@@H](Cc1ccc(O)cc1)C(=O)N[C@H]1CSSC[C@@H]2NC(=O)[C@@H]3CSSC[C@@H](C(=O)N[C@@H](CCCNC(=N)N)C(=O)N[C@@H](CCCCN)C(=O)N[C@H](C(=O)N[C@@H](Cc4c[nH]c5ccccc45)C(N)=O)[C@@H](C)CC)NC(=O)[C@H](Cc4c[nH]c5ccccc45)NC(=O)[C@H](CC(C)C)NC(=O)[C@H](CCCCN)NC(=O)[C@H](CSSC[C@H](NC(=O)[C@H]([C@@H](C)O)NC(=O)[C@H](Cc4c[nH]c5ccccc45)NC(=O)[C@H](Cc4ccccc4)NC(=O)[C@H](Cc4c[nH]c5ccccc45)NC(=O)[C@H](CCCCN)NC(=O)[C@H](CCC(N)=O)NC1=O)C(=O)N[C@@H](CC(=O)O)C(=O)N[C@@H](CO)C(=O)N[C@@H](CCCCN)C(=O)N[C@@H](CCCNC(=N)N)C(=O)N[C@@H](C)C(=O)N3)NC(=O)[C@H](CCC(=O)O)NC(=O)[C@H](CC(C)C)NC(=O)CNC(=O)[C@H](CCC(=O)O)NC2=O [compound 298]
- IC50 ([1]; tonic block): 15 nM
- IC50 ([2]; tonic block): 661 nM
- Nav1.4/Nav1.7 ([2]; ratio of PX tonic IC50 values): 44
- IC50 ([3]; tonic block): 780 nM
- Nav1.5/Nav1.7 ([3]; ratio of PX tonic IC50 values): 52

SMILES: CCCC[C@@H]1NC(=O)[C@H](Cc2c[nH]c3ccccc23)NC(=O)[C@H](CCCCN)NC(=O)[C@H](CCC(N)=O)NC(=O)[C@@H](NC(=O)[C@H](Cc2ccc(O)cc2)NC(=O)[C@@H](N)CC#N)CSSC[C@@H]2NC(=O)[C@@H]3CSSC[C@@H](C(=O)N[C@@H](CCCNC(=N)N)C(=O)N[C@@H](CCCCN)C(=O)N[C@@H](CCC(=O)O)C(=O)N[C@H](C(N)=O)[C@@H](C)CC)NC(=O)[C@H](Cc4c[nH]c5ccccc45)NC(=O)[C@H](CC(C)C)NC(=O)[C@H](CCCCN)NC(=O)[C@H](CSSC[C@H](NC(=O)[C@H]([C@@H](C)O)NC(=O)[C@H](Cc4c[nH]c5ccccc45)NC1=O)C(=O)N[C@@H](CC(=O)O)C(=O)N[C@@H](CO)C(=O)N[C@@H](CCCCN)C(=O)N[C@@H](CCCNC(=N)N)C(=O)N[C@@H](C)C(=O)N3)NC(=O)[C@H](CCCNC(=N)N)NC(=O)[C@H](CC(C)C)NC(=O)CNC(=O)[C@H](Cc1cn(CCCOCCOCCOCCOCCOCCOCCOCCOCCOCCOCCN)nn1)NC2=O [compound 443]
- IC50 [1, 4]: 5.62 nM
- IC50 [2, 4]: 172 nM
- IC50 [3, 4]: 1330 nM

SMILES: CCCC[C@@H]1NC(=O)[C@H](Cc2c[nH]c3ccccc23)NC(=O)[C@H](CCCCN)NC(=O)[C@H](CCC(N)=O)NC(=O)[C@@H](NC(=O)[C@@H](N)Cc2ccc(O)cc2)CSSC[C@@H]2NC(=O)[C@@H]3CSSC[C@@H](C(=O)N[C@@H](CCCNC(=N)N)C(=O)N[C@@H](CCCCN)C(=O)N[C@H](C(=O)N[C@@H](Cc4c[nH]c5ccccc45)C(N)=O)[C@@H](C)CC)NC(=O)[C@H](Cc4c[nH]c5ccccc45)NC(=O)[C@H](CC(C)C)NC(=O)[C@H](CCCCN)NC(=O)[C@H](CSSC[C@H](NC(=O)[C@H]([C@@H](C)O)NC(=O)[C@H](Cc4c[nH]c5ccccc45)NC1=O)C(=O)N[C@@H](CC(=O)O)C(=O)N[C@@H](CCCCN=[N+]=[N-])C(=O)N[C@@H](CCCCN)C(=O)N[C@@H](CCCNC(=N)N)C(=O)N[C@@H](C)C(=O)N3)NC(=O)[C@H](CCC(=O)O)NC(=O)[C@H](CC(C)C)NC(=O)CNC(=O)[C@H](CCC(=O)O)NC2=O [compound 305]
- IC50 ([1]; tonic block): 435 nM
- Nav1.4/Nav1.7 ([2]; ratio of PX tonic IC50 values): 0
- Nav1.5/Nav1.7 ([3]; ratio of PX tonic IC50 values): 0

SMILES: CCCC[C@@H]1NC(=O)[C@H](Cc2c[nH]c3ccccc23)NC(=O)[C@H](CCCCN)NC(=O)[C@H](CCC(N)=O)NC(=O)[C@@H](NC(=O)[C@@H](N)CCCCN=[N+]=[N-])CSSC[C@@H]2NC(=O)[C@@H]3CSSC[C@@H](C(=O)N[C@@H](CCCNC(=N)N)C(=O)N[C@@H](CCCCN)C(=O)N[C@H](C(=O)N[C@@H](Cc4c[nH]c5ccccc45)C(N)=O)[C@@H](C)CC)NC(=O)[C@H](Cc4c[nH]c5ccccc45)NC(=O)[C@H](CC(C)C)NC(=O)[C@H](CCCCN)NC(=O)[C@H](CSSC[C@H](NC(=O)[C@H]([C@@H](C)O)NC(=O)[C@H](Cc4c[nH]c5ccccc45)NC1=O)C(=O)N[C@@H](CC(=O)O)C(=O)N[C@@H](CO)C(=O)N[C@@H](CCCCN)C(=O)N[C@@H](CCCNC(=N)N)C(=O)N[C@@H](C)C(=O)N3)NC(=O)[C@H](CCC(=O)O)NC(=O)[C@H](CC(C)C)NC(=O)CNC(=O)[C@H](CCC(=O)O)NC2=O [compound 304]
- IC50 ([1]; tonic block): 3.86 nM
- IC50 ([2]; tonic block): 1740 nM
- IC50 ([3]; tonic block): 2560 nM
